Measured values as given in the supplement of paper PMC12076712.

Tests used:
Experiment in all cases: pIC50, kinobeads binding competition
[1] = target: Jak2 (UniProt O60674)
In short: (§1)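 pIC50 was obtained by fitting fold changes against vehicle to logistic dose-response curves with the R drc package, using biological duplicates. Kinobeads-bound proteins were digested and measured by TMT10 LC-MS/MS. Before this, either living Jurkat cells received nine compound concentrations (top 30 μM, 1:4 steps) for 60 min at 37 °C prior to lysis, or Jurkat lysate or a 1:1:1:1 HEK293/K-562/HepG2/placenta lysate mix received nine concentrations (top 30 μM, 1:5 steps) for 60 min at 4 °C.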

[2] = target: FGFR2 (UniProt P21802); details: cell material: Lysate mix
Sequence of FGFR2 (P21802 whole entry, looked up): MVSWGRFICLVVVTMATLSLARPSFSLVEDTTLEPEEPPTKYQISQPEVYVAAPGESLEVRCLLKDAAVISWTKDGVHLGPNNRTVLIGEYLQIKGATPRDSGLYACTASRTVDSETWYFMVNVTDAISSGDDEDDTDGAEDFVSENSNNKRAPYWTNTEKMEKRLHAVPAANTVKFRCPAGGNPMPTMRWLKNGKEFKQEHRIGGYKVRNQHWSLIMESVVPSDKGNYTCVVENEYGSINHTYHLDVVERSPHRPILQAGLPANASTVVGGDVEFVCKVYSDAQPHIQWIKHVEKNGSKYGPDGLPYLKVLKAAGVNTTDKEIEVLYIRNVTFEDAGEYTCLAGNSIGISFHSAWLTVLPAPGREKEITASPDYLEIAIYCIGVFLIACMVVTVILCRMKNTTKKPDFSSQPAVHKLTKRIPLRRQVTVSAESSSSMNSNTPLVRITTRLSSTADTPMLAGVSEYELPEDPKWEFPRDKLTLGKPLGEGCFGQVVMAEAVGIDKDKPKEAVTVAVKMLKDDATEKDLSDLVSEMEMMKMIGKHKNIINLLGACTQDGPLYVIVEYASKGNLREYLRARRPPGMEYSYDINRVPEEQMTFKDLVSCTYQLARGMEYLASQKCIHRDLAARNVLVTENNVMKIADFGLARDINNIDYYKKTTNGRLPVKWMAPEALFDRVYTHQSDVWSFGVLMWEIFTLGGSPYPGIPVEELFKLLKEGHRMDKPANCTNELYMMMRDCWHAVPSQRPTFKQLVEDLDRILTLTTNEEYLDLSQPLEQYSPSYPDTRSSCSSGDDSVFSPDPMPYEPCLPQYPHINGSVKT
In short: as §1

[3] = target: UniProt Q15418
Sequence of UniProt Q15418 (Q15418 whole entry): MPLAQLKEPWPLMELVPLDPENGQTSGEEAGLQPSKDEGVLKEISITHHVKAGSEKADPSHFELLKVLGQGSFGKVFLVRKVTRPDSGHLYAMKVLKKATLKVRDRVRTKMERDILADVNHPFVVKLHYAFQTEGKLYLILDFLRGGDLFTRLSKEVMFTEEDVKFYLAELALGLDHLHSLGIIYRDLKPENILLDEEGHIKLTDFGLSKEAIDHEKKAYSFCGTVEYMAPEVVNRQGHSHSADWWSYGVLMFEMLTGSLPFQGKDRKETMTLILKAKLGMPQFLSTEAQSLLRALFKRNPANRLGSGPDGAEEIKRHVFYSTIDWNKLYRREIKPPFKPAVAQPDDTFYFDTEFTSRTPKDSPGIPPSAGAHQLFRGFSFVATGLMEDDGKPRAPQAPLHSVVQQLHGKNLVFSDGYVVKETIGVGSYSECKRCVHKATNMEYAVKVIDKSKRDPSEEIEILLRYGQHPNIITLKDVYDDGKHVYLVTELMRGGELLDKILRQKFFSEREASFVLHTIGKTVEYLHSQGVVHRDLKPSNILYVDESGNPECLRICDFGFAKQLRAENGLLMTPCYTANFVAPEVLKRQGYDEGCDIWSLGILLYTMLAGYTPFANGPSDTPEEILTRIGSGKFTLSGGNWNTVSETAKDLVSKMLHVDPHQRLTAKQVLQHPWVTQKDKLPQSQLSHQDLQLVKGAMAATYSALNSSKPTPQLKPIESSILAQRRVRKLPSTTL
In short: as §1

[4] = target: T1, UniProt P45985
T1 sequence (whole entry): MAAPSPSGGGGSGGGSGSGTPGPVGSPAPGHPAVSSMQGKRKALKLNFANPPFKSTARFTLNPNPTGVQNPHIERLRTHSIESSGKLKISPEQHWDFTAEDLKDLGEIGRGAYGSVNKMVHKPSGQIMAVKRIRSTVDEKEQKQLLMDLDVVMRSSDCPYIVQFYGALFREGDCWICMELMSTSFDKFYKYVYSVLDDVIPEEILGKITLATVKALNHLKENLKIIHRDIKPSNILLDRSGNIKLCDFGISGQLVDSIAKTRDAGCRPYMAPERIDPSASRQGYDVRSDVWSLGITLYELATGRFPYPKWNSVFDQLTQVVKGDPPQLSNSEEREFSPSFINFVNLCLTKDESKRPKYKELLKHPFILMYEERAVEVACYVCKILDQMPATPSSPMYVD
In short: as §1

[5] = target: FGR (UniProt P09769)
Sequence of FGR (P09769 whole entry, looked up): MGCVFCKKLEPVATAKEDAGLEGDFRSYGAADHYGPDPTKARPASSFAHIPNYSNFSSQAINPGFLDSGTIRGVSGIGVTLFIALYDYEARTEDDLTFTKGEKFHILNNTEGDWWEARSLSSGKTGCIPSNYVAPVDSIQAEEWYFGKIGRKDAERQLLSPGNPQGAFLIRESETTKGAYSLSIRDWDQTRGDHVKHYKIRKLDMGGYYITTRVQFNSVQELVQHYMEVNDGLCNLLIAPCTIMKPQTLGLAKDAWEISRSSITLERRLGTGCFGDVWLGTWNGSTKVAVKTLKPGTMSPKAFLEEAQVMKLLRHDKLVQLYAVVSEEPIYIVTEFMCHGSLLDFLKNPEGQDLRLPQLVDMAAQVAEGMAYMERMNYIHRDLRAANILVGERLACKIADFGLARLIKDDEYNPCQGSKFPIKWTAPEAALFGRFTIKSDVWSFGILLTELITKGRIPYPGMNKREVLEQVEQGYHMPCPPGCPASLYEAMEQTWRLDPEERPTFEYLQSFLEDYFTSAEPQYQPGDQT
In short: as §1

[6] = target: T2, JAK3 (UniProt P52333)
T2 sequence (whole entry): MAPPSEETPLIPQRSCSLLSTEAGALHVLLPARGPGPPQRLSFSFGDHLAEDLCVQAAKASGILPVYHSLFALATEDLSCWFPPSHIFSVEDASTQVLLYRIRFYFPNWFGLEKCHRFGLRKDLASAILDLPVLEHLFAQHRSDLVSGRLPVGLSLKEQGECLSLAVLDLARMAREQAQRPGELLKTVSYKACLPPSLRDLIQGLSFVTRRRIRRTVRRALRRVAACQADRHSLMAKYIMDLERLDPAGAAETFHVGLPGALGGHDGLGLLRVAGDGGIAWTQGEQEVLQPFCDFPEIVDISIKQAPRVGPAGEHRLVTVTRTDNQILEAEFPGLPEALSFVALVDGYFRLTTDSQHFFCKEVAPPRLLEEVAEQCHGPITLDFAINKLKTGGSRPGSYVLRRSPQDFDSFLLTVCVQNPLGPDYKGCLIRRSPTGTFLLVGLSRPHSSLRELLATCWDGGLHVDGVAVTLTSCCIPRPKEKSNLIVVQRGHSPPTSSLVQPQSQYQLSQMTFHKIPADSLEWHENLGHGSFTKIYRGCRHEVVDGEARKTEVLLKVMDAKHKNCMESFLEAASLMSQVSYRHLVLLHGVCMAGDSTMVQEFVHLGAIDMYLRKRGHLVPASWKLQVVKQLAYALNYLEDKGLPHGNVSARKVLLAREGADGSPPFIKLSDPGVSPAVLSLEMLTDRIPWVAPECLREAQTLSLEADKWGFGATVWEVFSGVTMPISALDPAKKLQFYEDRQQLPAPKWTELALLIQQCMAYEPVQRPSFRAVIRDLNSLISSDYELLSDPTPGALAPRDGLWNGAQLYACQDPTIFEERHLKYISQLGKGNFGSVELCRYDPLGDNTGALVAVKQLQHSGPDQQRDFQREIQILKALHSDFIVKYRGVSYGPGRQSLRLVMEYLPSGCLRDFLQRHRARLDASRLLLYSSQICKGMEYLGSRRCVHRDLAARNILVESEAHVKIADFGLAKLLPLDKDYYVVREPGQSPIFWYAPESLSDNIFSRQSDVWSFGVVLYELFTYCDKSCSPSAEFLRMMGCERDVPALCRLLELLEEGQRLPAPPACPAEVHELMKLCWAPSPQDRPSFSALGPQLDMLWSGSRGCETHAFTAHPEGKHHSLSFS
In short: as §1

[7] = target: CAMKK2 (UniProt Q96RR4)
Sequence of CAMKK2 (Q96RR4 whole entry, looked up): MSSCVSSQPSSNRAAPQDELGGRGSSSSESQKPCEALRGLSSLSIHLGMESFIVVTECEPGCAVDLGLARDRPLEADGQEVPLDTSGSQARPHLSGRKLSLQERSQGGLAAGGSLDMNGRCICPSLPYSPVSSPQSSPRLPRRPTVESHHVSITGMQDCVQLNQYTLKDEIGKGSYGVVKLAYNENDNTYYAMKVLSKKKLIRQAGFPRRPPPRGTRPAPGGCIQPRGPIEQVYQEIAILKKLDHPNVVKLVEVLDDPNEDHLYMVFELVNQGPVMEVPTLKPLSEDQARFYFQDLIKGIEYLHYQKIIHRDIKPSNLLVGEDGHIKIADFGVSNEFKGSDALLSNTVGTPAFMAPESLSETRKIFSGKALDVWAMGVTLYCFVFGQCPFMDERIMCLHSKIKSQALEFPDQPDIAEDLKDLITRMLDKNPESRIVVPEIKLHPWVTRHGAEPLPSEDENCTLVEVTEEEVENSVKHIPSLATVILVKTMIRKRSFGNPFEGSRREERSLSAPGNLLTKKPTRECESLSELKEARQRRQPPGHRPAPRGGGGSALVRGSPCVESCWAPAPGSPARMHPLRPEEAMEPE
In short: as §1

[8] = target: UniProt P04629; details: cell material: Lysate mix
Sequence of UniProt P04629 (P04629 whole entry, looked up): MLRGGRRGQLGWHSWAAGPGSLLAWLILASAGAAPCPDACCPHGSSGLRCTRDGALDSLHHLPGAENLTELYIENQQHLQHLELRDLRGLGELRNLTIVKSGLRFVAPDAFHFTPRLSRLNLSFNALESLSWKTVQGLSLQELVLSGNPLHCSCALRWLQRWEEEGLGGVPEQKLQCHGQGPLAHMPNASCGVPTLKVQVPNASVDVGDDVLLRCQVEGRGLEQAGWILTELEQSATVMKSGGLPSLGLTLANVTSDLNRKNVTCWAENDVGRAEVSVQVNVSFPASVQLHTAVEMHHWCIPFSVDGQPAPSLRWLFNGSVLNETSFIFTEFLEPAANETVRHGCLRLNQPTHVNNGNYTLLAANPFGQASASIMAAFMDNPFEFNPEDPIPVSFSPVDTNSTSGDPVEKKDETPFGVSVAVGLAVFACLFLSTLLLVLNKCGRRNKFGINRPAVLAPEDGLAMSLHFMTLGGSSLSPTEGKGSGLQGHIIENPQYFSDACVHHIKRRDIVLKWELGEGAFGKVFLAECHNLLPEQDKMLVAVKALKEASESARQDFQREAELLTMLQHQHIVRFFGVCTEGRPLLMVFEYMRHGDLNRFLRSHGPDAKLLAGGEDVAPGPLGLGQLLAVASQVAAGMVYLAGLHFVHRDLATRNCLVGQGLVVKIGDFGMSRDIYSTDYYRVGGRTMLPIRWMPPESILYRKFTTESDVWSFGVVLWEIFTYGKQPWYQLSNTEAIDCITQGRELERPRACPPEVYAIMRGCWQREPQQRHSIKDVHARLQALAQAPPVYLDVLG
In short: as §1

[9] = target: T3, UniProt O15530
T3 sequence (whole entry): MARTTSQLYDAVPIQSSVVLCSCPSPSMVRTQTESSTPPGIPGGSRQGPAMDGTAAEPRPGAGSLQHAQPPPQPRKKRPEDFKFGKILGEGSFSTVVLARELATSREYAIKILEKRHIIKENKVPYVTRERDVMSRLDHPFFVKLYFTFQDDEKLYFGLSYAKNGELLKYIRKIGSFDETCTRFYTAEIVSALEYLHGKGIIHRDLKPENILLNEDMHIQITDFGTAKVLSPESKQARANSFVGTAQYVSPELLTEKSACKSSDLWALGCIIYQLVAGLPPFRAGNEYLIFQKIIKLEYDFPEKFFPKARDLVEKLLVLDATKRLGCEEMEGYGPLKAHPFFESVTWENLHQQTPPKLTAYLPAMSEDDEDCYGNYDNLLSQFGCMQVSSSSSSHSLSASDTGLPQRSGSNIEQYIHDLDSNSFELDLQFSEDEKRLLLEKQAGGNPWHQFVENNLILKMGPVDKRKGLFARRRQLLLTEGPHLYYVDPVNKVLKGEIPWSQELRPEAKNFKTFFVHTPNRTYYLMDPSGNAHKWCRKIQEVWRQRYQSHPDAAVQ
In short: as §1

Sequence of Jak2 (O60674 whole entry): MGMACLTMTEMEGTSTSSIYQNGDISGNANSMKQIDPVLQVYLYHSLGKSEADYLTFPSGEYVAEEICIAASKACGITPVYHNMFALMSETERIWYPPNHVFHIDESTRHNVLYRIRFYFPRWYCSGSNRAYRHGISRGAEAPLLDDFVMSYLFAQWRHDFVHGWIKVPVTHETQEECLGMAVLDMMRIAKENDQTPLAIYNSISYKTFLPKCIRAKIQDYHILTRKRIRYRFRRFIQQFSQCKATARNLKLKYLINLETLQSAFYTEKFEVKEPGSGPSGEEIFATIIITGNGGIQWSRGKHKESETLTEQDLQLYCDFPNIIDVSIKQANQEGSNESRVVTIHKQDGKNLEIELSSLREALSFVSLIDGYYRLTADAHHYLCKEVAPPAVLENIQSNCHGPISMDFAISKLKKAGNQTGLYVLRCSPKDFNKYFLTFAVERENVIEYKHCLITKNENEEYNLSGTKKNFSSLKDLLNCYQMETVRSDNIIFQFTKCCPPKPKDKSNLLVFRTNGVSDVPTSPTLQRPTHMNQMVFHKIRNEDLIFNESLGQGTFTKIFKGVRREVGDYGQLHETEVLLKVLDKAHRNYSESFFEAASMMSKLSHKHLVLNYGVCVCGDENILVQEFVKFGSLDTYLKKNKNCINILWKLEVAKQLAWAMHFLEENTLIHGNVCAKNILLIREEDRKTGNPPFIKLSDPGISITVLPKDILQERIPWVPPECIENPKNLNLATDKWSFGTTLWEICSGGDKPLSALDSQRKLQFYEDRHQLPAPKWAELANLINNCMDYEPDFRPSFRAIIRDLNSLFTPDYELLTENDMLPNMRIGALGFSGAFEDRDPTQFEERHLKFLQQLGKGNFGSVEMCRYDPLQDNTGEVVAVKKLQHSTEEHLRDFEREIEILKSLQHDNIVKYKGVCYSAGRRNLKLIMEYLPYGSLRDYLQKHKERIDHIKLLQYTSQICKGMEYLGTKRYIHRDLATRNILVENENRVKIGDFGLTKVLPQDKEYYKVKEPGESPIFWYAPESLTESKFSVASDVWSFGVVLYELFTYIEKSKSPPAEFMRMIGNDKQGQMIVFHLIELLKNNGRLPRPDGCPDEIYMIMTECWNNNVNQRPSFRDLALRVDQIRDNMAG

SMILES	pIC50 ([1]; cell material: Lysate mix)	pIC50 [2]	pIC50 ([3]; cell material: Lysate mix)	pIC50 ([4]; cell material: Lysate mix)	pIC50 ([5]; cell material: Lysate mix)	pIC50 ([6]; cell material: Lysate mix)	pIC50 ([7]; cell material: Lysate mix)	pIC50 [8]	pIC50 ([9]; cell material: Lysate mix)	pIC50 ([5]; cell material: Jurkat cells)	pIC50 ([1]; cell material: Jurkat lysate)	pIC50 ([3]; cell material: Jurkat cells)	pIC50 ([3]; cell material: Jurkat lysate)	pIC50 ([4]; cell material: Jurkat cells)	pIC50 ([4]; cell material: Jurkat lysate)	pIC50 ([5]; cell material: Jurkat lysate)	pIC50 ([6]; cell material: Jurkat cells)	pIC50 ([6]; cell material: Jurkat lysate)	pIC50 ([7]; cell material: Jurkat cells)	pIC50 ([7]; cell material: Jurkat lysate)	pIC50 ([9]; cell material: Jurkat cells)	pIC50 ([9]; cell material: Jurkat lysate)
C#CCNC(=O)c1cc(Nc2cc(C3CC3)[nH]n2)nc(N2CCN(Cc3ccc(S(=O)(=O)F)cc3)CC2)n1	4.9	4.94	5.49	4.82	6.2	6.08	5.88	5.39	< 4.52	–	< 4.52	5.98	< 4.52	5.86	< 4.52	5.6	5.94	5.42	5.88	5.7	5.5	< 4.52
O=C(NCCNC(=O)c1cc(Nc2cc(C3CC3)[nH]n2)nc(N2CCN(Cc3ccc(S(=O)(=O)F)cc3)CC2)n1)OC1CC/C=C/CCC1 (stereo not given)	< 4.52	< 4.52	–	< 4.52	–	< 4.52	5	< 4.52	< 4.52	5.92	< 4.52	5.78	< 4.52	–	< 4.52	< 4.52	5.39	< 4.52	6.18	5.1	–	< 4.52
Cc1cc(Nc2cc(C(=O)NCCNC(=O)OC3CC/C=C/CCC3)nc(N3CCN(Cc4ccc(S(=O)(=O)F)cc4)CC3)n2)n[nH]1 (stereo not given)	< 4.52	< 4.52	< 4.52	< 4.52	< 4.52	< 4.52	< 4.52	< 4.52	< 4.52	–	–	–	–	–	–	–	–	–	–	–	–	–

Second part, led by results:

pIC50 ([1]; cell material: Lysate mix)	pIC50 [2]	pIC50 ([3]; cell material: Lysate mix)	pIC50 ([4]; cell material: Lysate mix)	pIC50 ([5]; cell material: Lysate mix)	pIC50 ([6]; cell material: Lysate mix)	pIC50 ([7]; cell material: Lysate mix)	pIC50 [8]	pIC50 ([9]; cell material: Lysate mix)	pIC50 ([5]; cell material: Jurkat cells)	SMILES	pIC50 ([1]; cell material: Jurkat lysate)	pIC50 ([3]; cell material: Jurkat cells)	pIC50 ([3]; cell material: Jurkat lysate)	pIC50 ([4]; cell material: Jurkat cells)	pIC50 ([4]; cell material: Jurkat lysate)	pIC50 ([5]; cell material: Jurkat lysate)	pIC50 ([6]; cell material: Jurkat cells)	pIC50 ([6]; cell material: Jurkat lysate)	pIC50 ([7]; cell material: Jurkat cells)	pIC50 ([7]; cell material: Jurkat lysate)	pIC50 ([9]; cell material: Jurkat cells)	pIC50 ([9]; cell material: Jurkat lysate)
4.93	< 4.52	5.27	< 4.52	5.51	5.7	< 4.52	< 4.52	< 4.52	–	C#CCNC(=O)c1cc(Nc2cc(C)[nH]n2)nc(N2CCN(Cc3ccc(S(=O)(=O)F)cc3)CC2)n1	–	–	–	–	–	–	–	–	–	–	–	–
4.73	5.24	5.37	4.88	5.92	5.97	5.6	5.58	< 4.52	–	CCNC(=O)c1cc(Nc2cc(C3CC3)[nH]n2)nc(N2CCN(Cc3ccc(S(=O)(=O)F)cc3)CC2)n1	–	–	–	–	–	–	–	–	–	–	–	–
4.98	< 4.52	5.04	< 4.52	5.92	5.89	< 4.52	< 4.52	< 4.52	–	CCNC(=O)c1cc(Nc2cc(C)[nH]n2)nc(N2CCN(Cc3ccc(S(=O)(=O)F)cc3)CC2)n1	–	–	–	–	–	–	–	–	–	–	–	–
